Reference: paper PMC12186753 (ACS pharmacology & translational science, 2025)
Several values for one entry are separate records, joined by “and”; a condition that tells them apart may be missing. Identical values can stand only once. Like-named read-outs stand apart in the source and are kept apart here.

Experiments:
plasmin [1] = target: T1, plasmin (Homo sapiens, UniProt P00747); assay: Plasmin inhibition assay with chromogenic substrate S-2251 (Dixon plot, Cornish-Bowden plot); assay type: biochemical; settings: for Mode of inhibition (Cornish-Bowden S/Vo vs I plot) / rpAMB (KiAMB/Kihetero) / rpTXA (KiTXA/Kihetero): plasmin; for Ki: read-out: Plasmin Ki, S-2251, 42.5 nM human plasmin, PBS pH 7.4, Dixon plot
plasmin [2] = settings: read-out: Plasmin active site Ki reported in the literature; cited from earlier work
[3] = target: LBS on kringle domains of plasmin; settings: cited from earlier work
human thrombin = human thrombin (Homo sapiens, UniProt P00734); assay: Thrombin inhibition assay with fluorogenic Thrombin Substrate III (Dixon plot, Cornish-Bowden plot); assay type: biochemical; settings: for Ki: TSIII, 0.25 U/mL human thrombin, PBS pH 7.4 at 10% DMSO, Dixon plot; for Mode of inhibition (Cornish-Bowden S/Vo vs I plot): thrombin
human tPA = human tPA (Homo sapiens, UniProt P00750); assay: tPA inhibition assay with chromogenic substrate S-2288 (Dixon plot, Cornish-Bowden plot); assay type: biochemical; settings: for Ki: S-2288, 75 nM human tPA, PBS pH 7.4, Dixon plot; for Mode of inhibition (Cornish-Bowden S/Vo vs I plot): tPA
plasmin [4] = target: T1, plasmin; assay: Annular fibrin clot assay (FITC-tagged fibrin clot lysis by plasmin); assay type: biochemical; settings: for IC50/Ki: annular clot IC50 over S-2251 plasmin Ki
plasmin [5] = target: T1, plasmin; settings: read-out: Plasmin Ki; S-2251, 42.5 nM human plasmin, Dixon plot; previously determined; cited from earlier work

Sequence of human tPA (P00750 36-562): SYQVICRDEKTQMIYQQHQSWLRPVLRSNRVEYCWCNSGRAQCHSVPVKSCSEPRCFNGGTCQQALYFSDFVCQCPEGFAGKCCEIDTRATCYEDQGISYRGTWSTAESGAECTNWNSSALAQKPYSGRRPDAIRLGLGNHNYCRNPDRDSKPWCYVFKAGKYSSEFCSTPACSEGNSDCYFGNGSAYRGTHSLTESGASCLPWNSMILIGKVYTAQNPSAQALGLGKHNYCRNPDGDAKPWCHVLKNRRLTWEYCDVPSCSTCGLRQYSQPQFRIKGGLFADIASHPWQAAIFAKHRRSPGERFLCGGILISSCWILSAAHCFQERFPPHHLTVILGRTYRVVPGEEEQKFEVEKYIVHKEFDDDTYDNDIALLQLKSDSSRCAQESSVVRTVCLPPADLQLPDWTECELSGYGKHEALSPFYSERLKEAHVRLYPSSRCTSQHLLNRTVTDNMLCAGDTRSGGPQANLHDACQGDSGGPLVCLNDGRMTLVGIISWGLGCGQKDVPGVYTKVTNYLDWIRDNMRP
T1 sequence (P00747 97-580 limits assumed): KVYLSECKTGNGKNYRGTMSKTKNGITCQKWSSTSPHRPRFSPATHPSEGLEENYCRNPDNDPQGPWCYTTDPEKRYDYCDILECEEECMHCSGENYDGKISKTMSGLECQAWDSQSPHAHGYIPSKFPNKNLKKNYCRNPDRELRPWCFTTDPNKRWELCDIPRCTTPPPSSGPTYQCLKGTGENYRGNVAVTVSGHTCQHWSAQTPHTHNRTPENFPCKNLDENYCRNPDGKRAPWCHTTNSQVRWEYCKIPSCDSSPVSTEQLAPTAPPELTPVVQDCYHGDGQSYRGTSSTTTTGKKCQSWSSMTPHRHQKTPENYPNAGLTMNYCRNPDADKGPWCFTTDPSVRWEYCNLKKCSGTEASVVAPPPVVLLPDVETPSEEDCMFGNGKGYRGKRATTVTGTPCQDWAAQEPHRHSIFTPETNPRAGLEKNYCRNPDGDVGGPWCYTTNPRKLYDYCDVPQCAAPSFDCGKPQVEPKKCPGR
T1 sequence (P00747 581-810 limits assumed): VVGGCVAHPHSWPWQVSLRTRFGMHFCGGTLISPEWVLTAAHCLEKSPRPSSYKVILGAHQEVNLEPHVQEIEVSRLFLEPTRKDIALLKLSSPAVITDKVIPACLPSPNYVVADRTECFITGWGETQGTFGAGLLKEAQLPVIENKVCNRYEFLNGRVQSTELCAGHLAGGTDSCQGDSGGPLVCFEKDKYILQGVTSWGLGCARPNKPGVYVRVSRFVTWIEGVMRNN

| Ki (human thrombin; Thrombin Ki) | Structure (SMILES) | Mode of inhibition (Cornish-Bowden S/Vo vs I plot) (plasmin [1]) | Ki (human thrombin; read-out: Thrombin Ki) | Mode of inhibition (Cornish-Bowden S/Vo vs I plot) (human thrombin) | rpAMB (KiAMB/Kihetero) (plasmin [1]) | rpTXA (KiTXA/Kihetero) (plasmin [1]) | Ki (plasmin [1]) | Ki (human tPA; read-out: tPA Ki) | Mode of inhibition (Cornish-Bowden S/Vo vs I plot) (human tPA) | other results |
| --- | --- | --- | --- | --- | --- | --- | --- | --- | --- | --- |
|  | NC[C@H]1CC[C@H](C(=O)O)CC1 [TXA, Tranexamic acid] | weak competitive inhibitor |  |  |  |  |  |  |  | Ki (plasmin [2]): ~40000 µM; Ki ([3]; read-out: Ki for LBS on the K1 domain of plasmin, K1 domain): 1.1 µM; Ki ([3]; read-out: Ki for the other plasmin kringle domain LBS, other kringle domains): ~750 µM |
|  | N=C(N)c1ccc(CNC(=O)CCOCCOCCOCCOCCOCCOCCOCCOCCOCCOCCOCCOCCOCCOCCOCCOCCOCCOCCOCCOCCOCCOCCOCCOCCOCCOCCOCCOCCOCCOCCOCCOCCOCCOCCOCCOCCNC(=O)[C@H]2CC[C@H](CN)CC2)cc1 [TXA-dPEG36-AMB] | competitive inhibitor | 77.5 µM and 78 µM | competitive inhibitor | 14 | 285 | 75.4 µM and 75 µM | 136 ± 0.7 µM | not to be a solely competitive inhibitor |  |
|  | N=C(N)c1ccc(N)cc1 [4-amino benzamidine, reference compound] |  |  | competitive inhibitor |  |  |  |  | competitive inhibitor | IC50 (plasmin [4]): 451 ± 70 µM; Ki (human tPA; tPA Ki): 148 µM; Ki (plasmin [5]): 51 ± 2.4 µM |
|  | N=C(N)c1ccc(CNC(=O)CCOCCOCCOCCOCCNC(=O)CCCCCN)cc1 [EACA-dPEG4-AMB] | competitive inhibitor | 4.05 µM and 4 µM | competitive inhibitor |  |  | 233 ± 5 µM | 501 µM | competitive inhibitor | fold stronger inhibitor of thrombin than the TXA counterpart (human thrombin; EACA-dPEG4-AMB vs TXA-dPEG4-AMB, monovalent EACA vs monovalent TXA): 3 fold |
|  | N=C(N)c1ccc(CNC(=O)CCOCCOCCOCCOCCNC(=O)[C@H]2CC[C@H](CN)CC2)cc1 [TXA-dPEG4-AMB] | competitive inhibitor | 14.5 µM and 14 µM | competitive inhibitor | 26 | 509 | 42 ± 12 µM | 230 µM and 231 µM | competitive inhibitor |  |
|  | N=C(N)c1ccc(CNC(=O)CCOCCOCCOCCOCCOCCOCCOCCOCCOCCOCCOCCOCCNC(=O)[C@H]2CC[C@H](CN)CC2)cc1 [TXA-dPEG12-AMB] | competitive inhibitor | 45.7 µM and 46 µM | competitive inhibitor | 5 | 103 | 207 ± 4.1 µM | 641 µM | competitive inhibitor |  |
| 65200 µM | NCCCCCC(=O)O [EACA, ɛ-aminocaproic acid, reference compound] | weak competitive inhibitor |  | competitive inhibitor |  |  |  |  | weak competitive inhibitor |  |
|  | N=C(N)c1ccc(CNC(=O)CN(CC(=O)NCc2ccc(C(=N)N)cc2)CC(=O)NCc2ccc(C(=N)N)cc2)cc1 [Tri-AMB] |  | 10.7 µM and 11 µM | competitive inhibitor |  |  |  | 164 ± 17 µM | competitive inhibitor | IC50 (plasmin [4]; read-out: Annular IC50, 850 nM plasmin, annular fibrin clot, from Vmax): 7.7 ± 3 µM |
|  | N=C(N)c1ccccc1 [Benzamidine, reference compound] |  |  | competitive inhibitor |  |  |  |  | competitive inhibitor |  |
| 151 µM | N=C(N)c1ccc(C(=O)O)cc1 [4-carboxy benzamidine, reference compound] |  |  | competitive inhibitor |  |  |  |  |  | Ki (plasmin [5]): 292 ± 6.5 µM |
|  | N=C(N)c1ccc(CNC(=O)CCOCCOCCOCCOCCOCCOCCOCCOCCNC(=O)[C@H]2CC[C@H](CN)CC2)cc1 [TXA-dPEG8-AMB] | competitive inhibitor | 32.4 µM and 32 µM | competitive inhibitor | 11 | 216 | 99.4 µM and 99 µM | 292 ± 0.4 µM | not to be a solely competitive inhibitor |  |
| 344 µM | N=C(N)c1ccc(CN)cc1 [4-aminomethyl benzamidine, reference compound] |  |  | competitive inhibitor |  |  |  |  | competitive inhibitor | IC50 (plasmin [4]): 32700 µM; IC50/Ki (plasmin [4]): 29.0; Ki (human tPA; tPA Ki): 5210 µM; Ki (plasmin [5]): 1070 µM |

| Structure (SMILES) | Ki (human thrombin; Thrombin Ki) | Mode of inhibition (Cornish-Bowden S/Vo vs I plot) (plasmin [1]) | Ki (human thrombin; read-out: Thrombin Ki) | Mode of inhibition (Cornish-Bowden S/Vo vs I plot) (human thrombin) | rpAMB (KiAMB/Kihetero) (plasmin [1]) | rpTXA (KiTXA/Kihetero) (plasmin [1]) | Ki (plasmin [1]) | Ki (human tPA; read-out: tPA Ki) | Mode of inhibition (Cornish-Bowden S/Vo vs I plot) (human tPA) | other results |
| --- | --- | --- | --- | --- | --- | --- | --- | --- | --- | --- |
| N=C(N)c1ccc(OCCCCCOc2ccc(C(=N)N)cc2)cc1 [Pentamidine, reference compound] | 4.48 µM and 4.5 µM |  |  | competitive inhibitor |  |  |  |  | competitive inhibitor | IC50 (plasmin [4]): 3.2 ± 1 µM; IC50/Ki (plasmin [4]): 1.5; Ki (human tPA; tPA Ki): 42.7 µM and 43 µM |
